The series is described as follows: log P by HPLC on reversed-phase column (EEC Directive 79/831 Annex V.A8). The format is physicochemical. The method, then: In table 1, the log P values were determined in accordance with EEC Directive 79/831 Annex V.A8 by HPLC (High Performance Liquid Chromatography) on a reversed-phase column (C18), using the method described below: Temperature: 40° C.; […]

A word on the logP: it is the decadic logarithm of the partition coefficient of the neutral form, usually between octanol and water. Low readings indicate lower lipophilicity, high ones higher lipophilicity. In the case of `Cn1nc(C(F)F)c(C(=O)N(CCCc2ccco2)C2CC2)c1F` [Example 99], the logP came to 2.75.
The value for `Cn1nc(C(F)F)c(C(=O)N(CC#Cc2ccccc2)C2CCCC2)c1F` [Example 273] was 3.73; that for `Cn1nc(C(F)F)c(C(=O)NCCCC2Cc3ccccc3O2)c1F` (stereo not drawn) [Example 97] was 2.69; that for `Cn1nc(C(F)F)c(C(=O)NCC(=O)Nc2c(Cl)cc(Cl)cc2Cl)c1Cl` [Example 198] was 2.56.
In turn, `CCN(CC=Cc1ccccc1)C(=O)c1c(C(F)F)nn(C)c1Cl` [Example 263] registered a logP of 3.17.
As for `CC(C)N(CC(=O)Nc1ccccc1)C(=O)c1c(C(F)F)nn(C)c1Cl` [Example 2], the logP came to 2.43.
As to `CCCN(C(=O)c1c(C(F)F)nn(C)c1Cl)C(C)COc1ccccc1-c1ccccc1` (stereo not drawn) [Example 31], the logP is reported as 4.51.
Take `CCCN(CCCOc1c(C)cc(C)cc1C)C(=O)c1c(C(F)F)nn(C)c1F` [Example 235]: the logP is recorded as 4.27.
The figure for `CN(CCN(C)C(=O)c1c(C(F)F)nn(C)c1F)C(=O)c1ccccc1` [Example 230] is 1.66.
The value for `CC(C)CC(C)C1CCCCC1NC(=S)c1c(C(F)F)nn(C)c1Cl` (stereo not drawn) [Example 336] was 5.42.
`Cn1nc(C(F)F)c(C(=O)NCCOc2cccc(Oc3ccccc3)c2)c1Cl` [Example 75] displayed a logP of 3.60.
The figure for `Cn1nc(C(F)F)c(C(=O)N(CCOc2c(Cl)cc(Cl)cc2Cl)C2COC2)c1Cl` [Example 207] is 3.55; for `CC(CCc1ncc(C(F)(F)F)cc1Cl)N(C(=O)c1c(C(F)F)nn(C)c1F)C1CC1` (stereo not drawn) [Example 86] it is 3.92.
As to `CC(C)N(CCOc1c(Cl)cc(Cl)cc1Cl)C(=O)c1c(C(F)F)nn(C)c1Cl` [Example 208], the logP is 4.71.
For `CC(COc1c(Cl)cc(Cl)cc1Cl)NC(=O)c1c(C(F)F)nn(C)c1Cl` (stereo not drawn) [Example 211], the logP was 4.20.
On to `CN(CC#Cc1cc2ccccc2s1)C(=O)c1c(C(F)F)nn(C)c1F` [Example 278], for which the logP came out at 3.39.
Compound `Cn1nc(C(F)F)c(C(=O)NCC#Cc2cc3ccccc3s2)c1F` [Example 277] showed a logP of 3.19.
The figure for `CN(CC#Cc1ccco1)C(=O)c1c(C(F)F)nn(C)c1F` [Example 281] is 2.32; for `CC(C)N(CCOc1c(Cl)cc(Cl)cc1Cl)C(=O)c1c(C(F)F)nn(C)c1F` [Example 203] it is 4.51; for `C#CC1(NC(=O)c2c(C(F)F)nn(C)c2F)CCCCC1` [Example 385] it is 2.56.
As for `CC(COc1c(Cl)cc(Cl)cc1Cl)NC(=O)c1c(C(F)F)nn(C)c1F` (stereo not drawn) [Example 212], the logP was 3.92.
`CCCN(CCOc1ccccc1)C(=O)c1c(C(F)F)nn(C)c1F` [Example 8] showed a logP of 3.06.
As for `Cn1nc(C(F)F)c(C(=O)NC(COc2ccc3ccccc3c2)C2CC2)c1Cl` (racemic) [Example 138], the logP stood at 3.94.
Regarding `CC1CC(N(C(=S)c2c(C(F)F)nn(C)c2F)C2CC2)CC(C)(C)C1` (stereo not drawn) [Example 323], the logP came to 4.96.
`Cn1nc(C(F)F)c(C(=O)N(CC#Cc2ccccc2)C(C)(C)C)c1F` [Example 267] showed a lipophilicity (logP) of 3.83.
Regarding `CC(CC[Si](C)(C)C)N(C(=O)c1c(C(F)F)nn(C)c1F)C1CC1` (stereo not drawn) [Example 304], the logP is listed as 4.39.
For `Cn1nc(C(F)F)c(C(=O)NC(CCc2ccc(Cl)cc2)C(C)(C)C)c1Cl` (stereo not drawn) [Example 61], the logP was 4.41.
In turn, `Cn1nc(C(F)F)c(C(=O)NCCOc2c(F)cccc2F)c1Cl` [Example 160] gave a logP of 2.64.
`Cn1nc(C(F)F)c(C(=O)NC2(C(=O)Nc3ccccc3)CCCC2)c1F` [Example 3]: the logP is 2.46.
The value for `CCCN(CC(=O)Nc1c(Cl)cc(Cl)cc1Cl)C(=O)c1c(C(F)F)nn(C)c1Cl` [Example 199] was 3.11; that for `Cn1nc(C(F)F)c(C(=O)N(CC#Cc2ccccc2)C2CC2)c1Cl` [Example 272] was 3.33.
The figure for `CN(C(=O)c1c(C(F)F)nn(C)c1Cl)C(COc1ccc2ccccc2c1)C1CC1` (racemic) [Example 140] is 3.96.
The figure for `CC(CCc1ccc(Cl)cc1Cl)NC(=O)c1c(C(F)F)nn(C)c1F` (stereo not drawn) [Example 186] is 3.79; for `CCCN(CC(=O)Nc1c(Cl)cc(Cl)cc1Cl)C(=O)c1c(C(F)F)nn(C)c1F` [Example 200] it is 2.96.
As for `CC#CC1(NC(=O)c2c(C(F)F)nn(C)c2F)CCCCC1` [Example 382], the logP is 2.90.
The compound `CCC(COc1cccc2ccccc12)NC(=O)c1c(C(F)F)nn(C)c1Cl` (stereo not drawn) [Example 223] gave a logP of 3.85.
`CCCCC1CCCCC1NC(=S)c1c(C(F)F)nn(C)c1F` (stereo not drawn) [Example 332] gave a lipophilicity (logP) of 4.86.
Take `CC(CSCc1ccco1)N(C)C(=O)c1c(C(F)F)nn(C)c1Cl` (stereo not drawn) [Example 239]: the logP was 2.64.
The value for `CC(C)N(CCOc1ccc(Cl)cc1)C(=O)c1c(C(F)F)nn(C)c1F` [Example 56] was 3.62; that for `Cn1nc(C(F)F)c(C(=O)N(CCOc2c(Cl)cc(Cl)cc2Cl)C2CCCC2)c1Cl` [Example 206] was 5.27.
`Cc1ccc(C(C)CCN(C)C(=O)c2c(C(F)F)nn(C)c2Cl)o1` (stereo not drawn) [Example 110] gave a logP of 3.02.
The value for `Cn1nc(C(F)F)c(C(=O)NC2(C(=O)Nc3ccccc3)CCCC2)c1Cl` [Example 4] was 2.62; that for `Cn1nc(C(F)F)c(C(=O)NC2(C(F)(F)F)CCCCC2)c1Cl` [Example 386] was 3.15; that for `Cn1nc(C(F)F)c(C(=S)NC2CCCCC2CCC(C)(C)C)c1Cl` (stereo not drawn) [Example 356] was 5.60.
On to `CC(C)N(CCOc1ccc(Cl)cc1)C(=O)c1c(C(F)F)nn(C)c1Cl` [Example 53], for which the log partition coefficient (logP) came out at 3.78.
For the compound `CN(CC#Cc1ccccc1)C(=O)c1c(C(F)F)nn(C)c1F` [Example 269], the log partition coefficient (logP) was 2.78.
`COCCN(CC=Cc1ccccc1)C(=O)c1c(C(F)F)nn(C)c1F` [Example 266] showed a logP of 2.86.
As for `CC(C)C(C(=O)OCc1ccccc1)N(C)C(=O)c1c(C(F)F)nn(C)c1Cl` (stereo not drawn) [Example 229], the logP was 3.48.
The value for `Cn1nc(C(F)F)c(C(=O)N(CC#Cc2ccco2)C2CC2)c1F` [Example 279] was 2.70.
The figure for `COCCN(CC=Cc1ccccc1)C(=O)c1c(C(F)F)nn(C)c1Cl` [Example 265] is 3.02; for `Cc1ccc(C(C)CCN(C)C(=O)c2c(C(F)F)nn(C)c2F)o1` (stereo not drawn) [Example 109] it is 2.88; for `CC(CSCc1ccco1)N(C)C(=O)c1c(C(F)F)nn(C)c1F` (stereo not drawn) [Example 238] it is 2.49.
As for `CN(CCC(=O)Nc1ccc(Cl)c(Cl)c1)C(=O)c1c(C(F)F)nn(C)c1Cl` [Example 233], the logP came to 2.86.
The value for `Cn1nc(C(F)F)c(C(=O)NC(C)(C)C#Cc2ccc(C#N)cc2)c1F` [Example 284] was 2.82.
The value for `Cn1nc(C(F)F)c(C(=O)NC2CCCCC2C(C)(C)C)c1Cl` (stereo not drawn) [Example 348] was 4.15; that for `CN(CC=Cc1ccccc1)C(=O)c1c(C(F)F)nn(C)c1F` [Example 262] was 2.73.
The compound `Cc1ccc(C(C)CCN(C(=O)c2c(C(F)F)nn(C)c2Cl)C2CC2)o1` (stereo not drawn) [Example 108] registered a logP of 3.56.
As to `Cn1nc(C(F)F)c(C(=O)NCCS(=O)(=O)c2ccc(Cl)cc2)c1Cl` [Example 59], the logP is 2.30.
The compound `Cc1ccc(C#CCN(C(=O)c2c(C(F)F)nn(C)c2F)C2CC2)s1` [Example 286] registered a lipophilicity (logP) of 3.37.
Take `CCCN(CCOc1ccc(Cl)cc1)C(=O)c1c(C(F)F)nn(C)c1F` [Example 57]: the logP worked out at 3.53.
As for `Cn1nc(C(F)F)c(C(=O)NCCCc2cc3ccccc3o2)c1F` [Example 92], the log partition coefficient (logP) worked out at 2.90.
The figure for `Cn1nc(C(F)F)c(C(=O)N(CC#Cc2ccccc2)C2CCCC2)c1Cl` [Example 274] is 3.92; for `Cn1nc(C(F)F)c(C(=O)NCCOc2ccc(Cl)cc2)c1Cl` [Example 49] it is 2.96; for `Cn1nc(C(F)F)c(C(=O)NC2CCCCC2C2CCCCC2)c1Cl` (stereo not drawn) [Example 375] it is 4.56.
`Cc1cc(C)nc(CCC(C)NC(=O)c2c(C(F)F)nn(C)c2Cl)c1` (stereo not drawn) [Example 64] registered a logP of 1.81.
The compound `CN(CC(NC(=O)c1c(C(F)F)nn(C)c1Cl)C1CC1)c1ccccc1` (stereo not drawn) [Example 18] registered a logP of 3.31.
Take `Cc1ccc(SCC(C2CC2)N(C)C(=O)c2c(C(F)F)nn(C)c2Cl)cc1` (stereo not drawn) [Example 41]: the logP came out at 3.85.
Take `Cn1nc(C(F)F)c(C(=O)NC(CCc2ccc(Cl)cc2)C(C)(C)C)c1F` (stereo not drawn) [Example 60]: the lipophilicity (logP) was found to be 4.24.
`Cn1nc(C(F)F)c(C(=O)NCC(=O)Nc2c(Cl)cc(Cl)cc2Cl)c1F` [Example 197] showed a logP of 2.39.
The compound `Cc1cccc(C)c1OCCNC(=O)c1c(C(F)F)nn(C)c1Cl` [Example 152] showed a logP of 3.13.
The value for `Cn1nc(C(F)F)c(C(=O)NC2CCCC2Sc2ncccn2)c1Cl` (stereo not drawn) [Example 257] was 2.26; that for `Cc1ccc2sc(C#CCN(C(=O)c3c(C(F)F)nn(C)c3F)C3CC3)cc2c1` [Example 285] was 4.26.
`CCN(CC=Cc1ccccc1)C(=O)c1c(C(F)F)nn(C)c1F` [Example 264] showed a log partition coefficient (logP) of 3.02.
For `CCCN(CCOc1ccccc1)C(=O)c1c(C(F)F)nn(C)c1Cl` [Example 7], the logP is given as 3.21. The logP values of the last two compounds are within 0.2 log units of each other.
In turn, `Cn1nc(C(F)F)c(C(=O)NCCOc2ccc(-c3ccccc3)cc2)c1F` [Example 27] registered a logP of 3.44.
The value for `CCCN(CCOc1ccc(C(=O)OCC)cc1)C(=O)c1c(C(F)F)nn(C)c1F` [Example 73] was 3.31; that for `Cn1nc(C(F)F)c(C(=O)N(C2CC2)C2CCCCC2C2CCCCC2)c1Cl` (stereo not drawn) [Example 373] was 5.59; that for `Cn1nc(C(F)F)c(C(=O)NCCCc2ccco2)c1F` [Example 100] was 2.17.
